Key:
Format in all cases: biochemical
[1] = biological target: T1, Nitrile hydratase (PtNHase), alpha subunit (Pseudonocardia thermophila, UniProt Q7SID2+Q7SID3); assay: X-ray crystal structures
T1 sequence (Q7SID2 2-204): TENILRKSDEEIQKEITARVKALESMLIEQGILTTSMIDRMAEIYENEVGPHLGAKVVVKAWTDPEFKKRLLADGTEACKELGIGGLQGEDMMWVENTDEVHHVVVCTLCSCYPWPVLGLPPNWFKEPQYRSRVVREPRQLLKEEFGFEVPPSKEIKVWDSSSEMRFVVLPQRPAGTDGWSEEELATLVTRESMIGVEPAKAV
T1 sequence (Q7SID3 1-233): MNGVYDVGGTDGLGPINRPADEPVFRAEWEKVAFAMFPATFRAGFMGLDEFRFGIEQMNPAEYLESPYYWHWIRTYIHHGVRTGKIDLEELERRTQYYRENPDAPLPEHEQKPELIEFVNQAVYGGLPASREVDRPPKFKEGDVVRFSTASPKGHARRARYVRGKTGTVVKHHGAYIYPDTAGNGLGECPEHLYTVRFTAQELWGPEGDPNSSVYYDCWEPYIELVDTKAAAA

[2] = biological target: T1, Nitrile hydratase (PtNHase), alpha subunit; assay: X-ray co-crystal structure
[3] = biological target: T1, Nitrile hydratase (PtNHase), alpha subunit; assay: spectrophotometric hydration kinetics at […] nm

For `CCCCB(O)O` [BuBA, 1-butaneboronic acid], which Ki [1] is on record?
The Ki was 500 ± 100 nM.

For `OB(O)c1ccccc1` [PBA, phenylboronic acid], which Ki [2] is on record?
The Ki was 0.04 ± 0.01 nM.

How did the Km [3] turn out when `C=CC#N` [acrylonitrile] was run?
The Km was 800 ± 100 µM.
